Measured values taken from ChEMBL document CHEMBL2163318, “Phenylalanine derivatives as GPR142 agonists for the treatment of type II diabetes” (Bioorg Med Chem Lett, 2012).
Activity calls are given as the source filed them. No cut-off for these calls is given here.

What was measured:
[1] = target: T1, Probable G-protein coupled receptor 142 (Homo sapiens) (UniProt Q7Z601); test: Agonist activity at human GPR142 expressed in HEK293 cells assessed as inositol phosphate accumulation at 10 uM after 1 hr by scintillation counting; type: functional, cell-based
T1 sequence (whole entry): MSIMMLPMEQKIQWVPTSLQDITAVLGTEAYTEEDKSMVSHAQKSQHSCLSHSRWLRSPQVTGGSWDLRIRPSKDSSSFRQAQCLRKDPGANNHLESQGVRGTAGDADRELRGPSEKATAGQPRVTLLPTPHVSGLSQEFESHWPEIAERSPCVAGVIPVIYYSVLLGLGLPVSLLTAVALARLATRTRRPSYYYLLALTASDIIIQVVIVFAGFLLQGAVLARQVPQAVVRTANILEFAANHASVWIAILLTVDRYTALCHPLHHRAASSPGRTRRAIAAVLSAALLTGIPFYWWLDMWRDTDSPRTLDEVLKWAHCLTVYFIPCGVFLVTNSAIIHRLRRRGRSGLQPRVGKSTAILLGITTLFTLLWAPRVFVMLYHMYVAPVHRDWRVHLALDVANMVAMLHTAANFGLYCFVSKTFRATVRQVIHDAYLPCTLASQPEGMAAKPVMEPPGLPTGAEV

[2] = AUC in rat at 2 mg/kg, po; type: ADME, organism-based; set-up: dose 2 mg/kg, route oral; settings: plasma
Mus musculus [3] = test: Antidiabetic activity in B6D2F1 Harlan mouse assessed as decrease in blood glucose level at 3 mg/kg, sc administered 15 mins prior glucose challenge measured 7.5 mins post glucose challenge by glucometer analysis; type: functional; set-up: scale not given: the % may be the effect or the level left; settings: route subcutaneous
Mus musculus [4] = test: Antidiabetic activity in B6D2F1 Harlan mouse assessed as decrease in blood glucose level at 0.30 mg/kg, sc administered 15 mins prior glucose challenge measured 7.5 mins post glucose challenge by glucometer analysis; type: functional; set-up: scale not given: the % may be the effect or the level left; settings: dose 0.3 mg/kg; route subcutaneous
Mus musculus [5] = test: Antidiabetic activity in B6D2F1 Harlan mouse assessed as increase in serum insulin level at 30 mg/kg, sc administered 15 mins prior glucose challenge measured 7.5 mins post glucose challenge by ELISA; type: functional; settings: route subcutaneous
Mus musculus [6] = test: Antidiabetic activity in B6D2F1 Harlan mouse assessed as decrease in blood glucose level at 5 mg/kg, sc administered 15 mins prior glucose challenge measured 7.5 mins post glucose challenge by glucometer analysis; type: functional; set-up: scale not given: the % may be the effect or the level left; settings: route subcutaneous
[7] = target: T2, Probable G-protein coupled receptor 142 (Mus musculus) (UniProt Q7TQN9); test: Agonist activity at mouse GPR142 expressed in HEK293 cells by inositol phosphate accumulation assay relative to control; type: functional, cell-based
T2 sequence (whole entry): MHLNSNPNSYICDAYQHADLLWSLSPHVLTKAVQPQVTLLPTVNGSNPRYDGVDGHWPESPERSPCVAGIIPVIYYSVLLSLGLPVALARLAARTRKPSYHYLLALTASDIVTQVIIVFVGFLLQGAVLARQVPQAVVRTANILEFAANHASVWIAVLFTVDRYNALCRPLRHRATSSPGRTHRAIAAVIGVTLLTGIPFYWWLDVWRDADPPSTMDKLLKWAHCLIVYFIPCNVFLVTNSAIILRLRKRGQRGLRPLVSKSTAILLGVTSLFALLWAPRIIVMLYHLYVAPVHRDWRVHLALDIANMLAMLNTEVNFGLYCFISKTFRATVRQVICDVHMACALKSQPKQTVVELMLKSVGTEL

[8] = Half life in rat at 0.89 mg/kg, iv; type: ADME, organism-based; set-up: dose 0.89 mg/kg, route intravenous; settings: in vivo
[9] = Mean residence time in rat at 2 mg/kg, po; type: ADME, organism-based; set-up: dose 2 mg/kg, route oral; settings: in vivo
Mus musculus [10] = test: Antidiabetic activity in B6D2F1 Harlan mouse assessed as decrease in blood glucose level at 30 mg/kg, sc administered 15 mins prior glucose challenge measured 7.5 mins post glucose challenge by glucometer analysis; type: functional; set-up: scale not given: the % may be the effect or the level left; settings: route subcutaneous
Mus musculus [11] = test: Antidiabetic activity in B6D2F1 Harlan mouse assessed as increase in serum insulin level at 0.10 mg/kg, sc administered 15 mins prior glucose challenge measured 7.5 mins post glucose challenge by ELISA; type: functional, organism-based; set-up: dose 0.1 mg/kg
[12] = Oral bioavailability in rat at 2 mg/kg; type: ADME, organism-based; settings: in vivo
[13] = Volume of distribution at steady state in rat at 0.89 mg/kg, iv; type: ADME, organism-based; set-up: dose 0.89 mg/kg, route intravenous; settings: in vivo, read-out: Vdss
Mus musculus [14] = test: Antidiabetic activity in B6D2F1 Harlan mouse assessed as increase in serum insulin level at 5 mg/kg, sc administered 15 mins prior glucose challenge measured 7.5 mins post glucose challenge by ELISA; type: functional; settings: route subcutaneous
[15] = Clearance in rat at 0.89 mg/kg, iv; type: ADME, organism-based; set-up: dose 0.89 mg/kg, route intravenous; settings: in vivo
Mus musculus [16] = test: Antidiabetic activity in B6D2F1 Harlan mouse assessed as increase in serum insulin level at 3 mg/kg, sc administered 15 mins prior glucose challenge measured 7.5 mins post glucose challenge by ELISA; type: functional; settings: route subcutaneous
Mus musculus [17] = test: Antidiabetic activity in B6D2F1 Harlan mouse assessed as decrease in blood glucose level at 0.10 mg/kg, sc administered 15 mins prior glucose challenge measured 7.5 mins post glucose challenge by glucometer analysis; type: functional, organism-based; set-up: dose 0.1 mg/kg
[18] = target: T3, Probable G-protein coupled receptor 142 (Homo sapiens, UniProt Q7Z601); test: Agonist activity at human GPR142 expressed in HEK293 cells assessed as inositol phosphate accumulation after 1 hr by scintillation counting; type: functional, cell-based
T3 sequence (Q7Z601 whole entry): T1 sequence (whole entry)

Mus musculus [19] = test: Antidiabetic activity in sc dosed B6D2F1 Harlan mouse assessed as decrease in blood glucose level administered 15 mins prior glucose challenge measured 7.5 mins post glucose challenge by glucometer analysis; type: functional, organism-based
[20] = Metabolic stability of human microsomes assessed as compound turnover at 1 uM after 30 mins by LC-MS analysis; type: ADME, Microsome; settings: read-out: Drug metabolism
Mus musculus [21] = test: Antidiabetic activity in B6D2F1 Harlan mouse assessed as increase in serum insulin level at 1 mg/kg, sc administered 15 mins prior glucose challenge measured 7.5 mins post glucose challenge by ELISA; type: functional; settings: route subcutaneous
Mus musculus [22] = test: Antidiabetic activity in B6D2F1 Harlan mouse assessed as increase in serum insulin level at 0.30 mg/kg, sc administered 15 mins prior glucose challenge measured 7.5 mins post glucose challenge by ELISA; type: functional; settings: dose 0.3 mg/kg; route subcutaneous
[23] = Metabolic stability of rat microsomes assessed as compound turnover at 1 uM after 30 mins by LC-MS analysis; type: ADME, Microsome; settings: read-out: Drug metabolism
Mus musculus [24] = test: Antidiabetic activity in sc dosed B6D2F1 Harlan mouse assessed as increase in serum insulin level administered 15 mins prior glucose challenge measured 7.5 mins post glucose challenge by ELISA; type: functional, organism-based
[25] = AUC in rat at 0.89 mg/kg, iv; type: ADME, organism-based; set-up: dose 0.89 mg/kg, route intravenous; settings: plasma
Mus musculus [26] = test: Antidiabetic activity in B6D2F1 Harlan mouse assessed as decrease in blood glucose level at 1 mg/kg, sc administered 15 mins prior glucose challenge measured 7.5 mins post glucose challenge by glucometer analysis; type: functional; set-up: scale not given: the % may be the effect or the level left; settings: route subcutaneous
[27] = target: T4, Probable G-protein coupled receptor 142 (Mus musculus, UniProt Q7TQN9); test: Agonist activity at mouse GPR142 expressed in HEK293 cells by inositol phosphate accumulation assay; type: functional, cell-based
T4 sequence (Q7TQN9 whole entry): T2 sequence (whole entry)

Emax [1]: 127%
AUC [2]: 77 ng·h/mL
Emax [7]: 81%
half-life [8]: 12 min
MRT [9]: 107 min
bioavailability [12]: 20%
Vd [13]: 1.1 L/kg
clearance [15]: 83.3 mL/min/kg
EC50 [18]: 54 nM
EC50 (Mus musculus [19]): 850 nM
metabolised at 0.5 h, 1 µM [20]: < 10%
metabolised at 0.5 h, 1 µM [23]: 60%
EC50 (Mus musculus [24]): 290 nM
AUC [25]: 177 ng·h/mL
EC50 [27]: 1.8 nM
Compound: O=C(Nc1cc(-c2ccncc2)c[nH]c1=O)[C@H](Cc1ccccc1)NC1(c2ccccn2)CC1
Activity (Mus musculus [3]): 4%
Activity (Mus musculus [4]): 0%
Activity (Mus musculus [5]): 98%
Activity (Mus musculus [6]): 15%
Activity (Mus musculus [10]): 13%
Activity (Mus musculus [11]): inactive
Activity (Mus musculus [14]): 81%
Activity (Mus musculus [16]): 58%
Activity (Mus musculus [17]): inactive
Activity (Mus musculus [19]): Dose-dependent effect
Activity (Mus musculus [21]): 41%
Activity (Mus musculus [22]): 15%
Activity (Mus musculus [24]): Dose-dependent effect
Activity (Mus musculus [26]): 3%
